Earlier results on 1 compound are cited in patent publication EP4545067A1, “HIGHY DOSED DERMALLY […] PREPARATION HAVING AN INCREASED DRUGLOAD IN THE TARGET CO[…] IMPROVED TREATMENT OF ECTOPARASITE INFESTATION” (Infectopharm Arzneimittel und Consilium GmbH, priority 2023, dated 2025).

For this data set the following is noted: bei 20 °C.

On to `CC1(C)C(C=C(Cl)Cl)C1C(=O)OCc1cccc(Oc2ccccc2)c1` (stereo not shown) [Permethrin, 3-(2,2-Dichlorethenyl)-2,2-dimethylcyclopropancarboxylsäure-(3-phenoxyphenyl)methylester], for which the “Löslichkeit in Wasser” value is recorded as 0,2 mg·l^-1.
